This passage reports IC50 results from US12358886B2, “Heterocyclic compounds for use in the treatment of cancer” (Artios Pharma Limited, priority 2019, dated 2025).

In general, IC50 refers to the midpoint of a concentration-inhibition curve.

Where two headings read alike, the source gives them in different places.

This test has as its target Polθ protein (amino acids 2-2590) (Homo sapiens, UniProt O75417). Kind of test: Polθ full length enzyme potency assay (PicoGreen). The conditions noted are these: full length N-His, C-term FLAG tagged Polθ, PicoGreen fluorescence, 12 point concentration response.

Chain of Polθ protein (amino acids 2-2590) (O75417 2-2590): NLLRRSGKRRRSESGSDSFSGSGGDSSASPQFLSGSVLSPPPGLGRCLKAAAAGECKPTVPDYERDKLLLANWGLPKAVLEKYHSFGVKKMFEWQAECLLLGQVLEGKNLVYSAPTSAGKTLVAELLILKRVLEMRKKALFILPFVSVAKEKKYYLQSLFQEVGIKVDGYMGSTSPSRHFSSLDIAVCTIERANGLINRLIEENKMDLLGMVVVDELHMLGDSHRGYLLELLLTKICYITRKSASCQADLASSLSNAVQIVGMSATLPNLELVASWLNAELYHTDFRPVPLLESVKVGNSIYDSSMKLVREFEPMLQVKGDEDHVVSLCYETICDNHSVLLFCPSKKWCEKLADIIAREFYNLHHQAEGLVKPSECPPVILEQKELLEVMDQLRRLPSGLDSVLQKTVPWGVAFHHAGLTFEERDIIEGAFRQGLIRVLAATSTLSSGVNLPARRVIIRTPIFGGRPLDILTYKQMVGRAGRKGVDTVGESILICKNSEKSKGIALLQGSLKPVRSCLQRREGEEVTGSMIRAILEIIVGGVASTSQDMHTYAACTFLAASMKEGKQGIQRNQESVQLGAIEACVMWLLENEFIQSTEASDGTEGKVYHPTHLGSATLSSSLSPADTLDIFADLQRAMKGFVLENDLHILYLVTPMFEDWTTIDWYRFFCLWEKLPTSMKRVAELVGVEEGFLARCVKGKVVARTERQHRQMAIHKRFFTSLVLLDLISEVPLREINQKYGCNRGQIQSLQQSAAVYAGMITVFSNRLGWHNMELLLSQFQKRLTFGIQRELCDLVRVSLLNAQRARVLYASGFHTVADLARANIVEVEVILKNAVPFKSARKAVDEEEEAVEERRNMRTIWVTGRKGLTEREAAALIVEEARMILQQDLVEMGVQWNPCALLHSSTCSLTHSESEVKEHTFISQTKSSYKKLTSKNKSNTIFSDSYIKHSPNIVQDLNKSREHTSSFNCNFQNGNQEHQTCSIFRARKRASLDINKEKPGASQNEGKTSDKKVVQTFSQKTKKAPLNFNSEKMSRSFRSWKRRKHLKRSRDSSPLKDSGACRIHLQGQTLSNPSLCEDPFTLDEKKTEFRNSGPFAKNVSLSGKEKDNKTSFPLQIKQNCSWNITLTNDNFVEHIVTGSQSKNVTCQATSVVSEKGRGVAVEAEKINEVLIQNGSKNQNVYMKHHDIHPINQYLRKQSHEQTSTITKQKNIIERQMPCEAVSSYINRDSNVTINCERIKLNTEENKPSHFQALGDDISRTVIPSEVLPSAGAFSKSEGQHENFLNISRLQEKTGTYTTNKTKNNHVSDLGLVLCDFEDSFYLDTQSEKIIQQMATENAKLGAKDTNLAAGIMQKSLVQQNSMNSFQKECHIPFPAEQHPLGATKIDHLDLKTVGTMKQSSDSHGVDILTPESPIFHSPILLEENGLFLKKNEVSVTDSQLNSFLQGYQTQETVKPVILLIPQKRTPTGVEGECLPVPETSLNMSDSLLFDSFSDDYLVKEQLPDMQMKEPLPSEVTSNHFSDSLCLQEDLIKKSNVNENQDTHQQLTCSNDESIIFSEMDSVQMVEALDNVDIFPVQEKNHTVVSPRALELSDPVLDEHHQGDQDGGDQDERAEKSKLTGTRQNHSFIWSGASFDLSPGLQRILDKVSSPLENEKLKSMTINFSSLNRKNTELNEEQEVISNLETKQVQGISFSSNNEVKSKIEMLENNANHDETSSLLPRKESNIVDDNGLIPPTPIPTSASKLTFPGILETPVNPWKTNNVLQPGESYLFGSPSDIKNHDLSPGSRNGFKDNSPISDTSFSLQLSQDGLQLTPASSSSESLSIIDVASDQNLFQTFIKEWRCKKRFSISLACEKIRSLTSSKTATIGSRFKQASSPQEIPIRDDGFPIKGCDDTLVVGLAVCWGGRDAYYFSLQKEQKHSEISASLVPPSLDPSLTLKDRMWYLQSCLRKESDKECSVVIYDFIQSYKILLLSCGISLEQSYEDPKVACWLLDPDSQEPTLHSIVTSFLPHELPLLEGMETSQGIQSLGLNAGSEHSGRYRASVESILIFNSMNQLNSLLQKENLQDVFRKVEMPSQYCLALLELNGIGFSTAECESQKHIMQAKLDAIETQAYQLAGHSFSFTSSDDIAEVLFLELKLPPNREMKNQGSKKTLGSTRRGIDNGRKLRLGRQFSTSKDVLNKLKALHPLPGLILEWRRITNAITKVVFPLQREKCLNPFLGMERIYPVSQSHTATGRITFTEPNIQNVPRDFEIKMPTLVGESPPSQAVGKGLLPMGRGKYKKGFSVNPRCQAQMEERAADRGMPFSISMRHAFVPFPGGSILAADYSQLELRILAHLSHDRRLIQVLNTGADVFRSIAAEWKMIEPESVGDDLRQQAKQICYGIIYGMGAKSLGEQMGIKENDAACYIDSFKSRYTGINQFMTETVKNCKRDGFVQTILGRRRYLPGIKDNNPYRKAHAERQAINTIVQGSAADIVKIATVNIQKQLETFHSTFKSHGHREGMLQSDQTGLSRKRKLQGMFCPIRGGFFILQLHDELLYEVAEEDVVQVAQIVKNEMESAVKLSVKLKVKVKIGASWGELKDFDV

For the compound `Cc1cc(C(F)(F)F)cc(N2C(=O)N(CCN3CCN(CCO)CC3)C[C@H]2C(=O)N(C)c2ccc(F)c(Cl)c2F)n1` [Example 209, (S)-N-(3-Chloro-2,4-difluorophenyl)-1-(2-(4-(2-hydroxyethyl)piperazin-1-yl)ethyl)-N-methyl-3-(6-methyl-4-(trifluoromethyl)pyridin-2-yl)-2-oxoimidazolidine-4-carboxamide], the 50% inhibitory concentration (IC50) (Polθ IC50 (nM)) came to 8 nM.

For the compound `C=Cc1cc(N(C)C(=O)[C@@H]2COC(=O)N2c2cc(C(F)(F)F)cc(C)n2)ccc1F` [Example 109, (S)—N-(4-Fluoro-3-vinylphenyl)-N-methyl-3-(6-methyl-4-(trifluoromethyl)pyridin-2-yl)-2-oxooxazolidine-4-carboxamide], half-maximal inhibition (Polθ IC50 (nM)) (IC50) was put at 49 nM.

In turn, `CNC(=O)CCN1C[C@@H](C(=O)N(C)c2ccc(F)c(Cl)c2)N(c2cc(C(F)(F)F)cc(C)n2)C1=O` [Example 191, (S)—N-(3-Chloro-4-fluorophenyl)-N-methyl-3-(6-methyl-4-(trifluoromethyl)pyridin-2-yl)-1-(3-(methylamino)-3-oxopropyl)-2-oxoimidazolidine-4-carboxamide] showed a 50% inhibitory concentration (IC50) (Polθ IC50 (nM)) of 12 nM.

Consider `Cc1cc(C(F)(F)F)cc(N2C(=O)OC[C@H]2C(=O)N(C)c2ccc(F)c(Cl)c2)n1` [Example 83, (S)—N-(3-Chloro-4-fluorophenyl)-N-methyl-3-(6-methyl-4-(trifluoromethyl)pyridin-2-yl)-2-oxooxazolidine-4-carboxamide], for which the midpoint of inhibition (Polθ IC50 (nM)), the IC50, lay at 16 nM.

`Cc1cccc(N(C)C(=O)[C@@H]2[C@@H](O)[C@@H](O)CN2c2nc(C)cc(C(F)(F)F)c2C#N)c1` [Example 53, (2S,3R,4S)-1-(3-Cyano-6-methyl-4-(trifluoromethyl)pyridin-2-yl)-3,4-dihydroxy-N-methyl-N-(m-tolyl)pyrrolidine-2-carboxamide] displayed a 50% inhibitory concentration (IC50) (Polθ IC50 (nM)) of 121 nM.

`Cc1cc(C(F)(F)F)cc(N2C(=O)[C@@H](O)[C@@H](O)[C@H]2C(=O)N(C)c2ccc(F)c(Cl)c2)n1` [Example 65, (2S,3S,4S)—N-(3-Chloro-4-fluorophenyl)-3,4-dihydroxy-N-methyl-1-(6-methyl-4-(trifluoromethyl)pyridin-2-yl)-5-oxopyrrolidine-2-carboxamide] came in with a concentration for half-maximal inhibition (IC50) (Polθ IC50 (nM)) of 8 nM.

`CCc1cc(C)nc(N2C(=O)OC[C@H]2C(=O)N(C)c2ccc(F)c(Cl)c2)c1` [Example 119, (S)—N-(3-Chloro-4-fluorophenyl)-3-(4-ethyl-6-methylpyridin-2-yl)-N-methyl-2-oxooxazolidine-4-carboxamide] showed an IC50 (Polθ IC50 (nM)) of 39 nM.

For `Cc1cccc(N(C)C(=O)[C@@H]2[C@@H](O)CCN2c2nc(C)cc(C(F)(F)F)c2C#N)c1` [Example 26, (2S,3S)-1-(3-Cyano-6-methyl-4-(trifluoromethyl)pyridin-2-yl)-3-hydroxy-N-methyl-N-(m-tolyl)pyrrolidine-2-carboxamide], the IC50 (read-out: Polθ IC50) turned out to be 61 nM.

As for `Cc1cc(C(F)(F)F)cc(N2C(=O)N(CCC(O)CO)C[C@H]2C(=O)N(C)c2ccc(F)c(Cl)c2)n1` (stereo partly drawn) [Example 232, (4S)—N-(3-Chloro-4-fluorophenyl)-1-(3,4-dihydroxybutyl)-N-methyl-3-(6-methyl-4-(trifluoromethyl)pyridin-2-yl)-2-oxoimidazolidine-4-carboxamide], half-maximal inhibition (Polθ IC50 (nM)) (IC50) was put at 15 nM.

On to `[2H]C([2H])([2H])N(C(=O)[C@@H]1[C@H](O)[C@H](O)C(=O)N1c1cc(C(F)(F)F)cc(C)n1)c1ccc(F)c(Cl)c1` [Example 163, (2S,3S,4S)—N-(3-Chloro-4-fluorophenyl)-3,4-dihydroxy-N-(methyl-d3)-1-(6-methyl-4-(trifluoromethyl)pyridin-2-yl)-5-oxopyrrolidine-2-carboxamide], for which the half-maximal inhibitory concentration (IC50) (Polθ IC50 (nM)) amounted to 11 nM.

For the setting “Polθ IC50 (nM)”, `Cc1cc(C(F)(F)F)cc(N2C(=O)N(CCN=S(C)(C)=O)C[C@H]2C(=O)N(C)c2ccc(F)c(Cl)c2)n1` [Example 228, (S)—N-(3-Chloro-4-fluorophenyl)-1-(2-((dimethyl(oxo)-16-sulfaneylidene)amino)ethyl)-N-methyl-3-(6-methyl-4-(trifluoromethyl)pyridin-2-yl)-2-oxoimidazolidine-4-carboxamide] gave an IC50 of 62 nM.

For `Cc1cc(C(F)(F)F)cc(N2C(=O)[C@@H](O)[C@@H](O)[C@H]2C(=O)N(C)c2ccc(Cl)cc2F)n1` [Example 165, (2S,3S,4S)—N-(4-Chloro-2-fluorophenyl)-3,4-dihydroxy-N-methyl-1-(6-methyl-4-(trifluoromethyl)pyridin-2-yl)-5-oxopyrrolidine-2-carboxamide], the IC50 (Polθ IC50 (nM)) turned out to be 20 nM.

For the compound `Cc1cc(C(F)(F)F)cc(N2C(=O)OC[C@H]2C(=O)N(C)c2ccc(Br)cc2F)n1` [Example 94, (S)-N-(4-Bromo-2-fluorophenyl)-N-methyl-3-(6-methyl-4-(trifluoromethyl)pyridin-2-yl)-2-oxooxazolidine-4-carboxamide], inhibition (Polθ IC50 (nM)) was half-maximal at 12 nM (IC50).

As to `CCc1cc(C(F)(F)F)cc(N2C(=O)OC[C@H]2C(=O)N(C)c2ccc(F)c(Cl)c2)n1` [Example 115, (S)—N-(3-Chloro-4-fluorophenyl)-3-(6-ethyl-4-(trifluoromethyl)pyridin-2-yl)-N-methyl-2-oxooxazolidine-4-carboxamide], under “Polθ IC50 (nM)”, the IC50 was 54 nM.

`Cc1cc(C(F)(F)F)cc(N2C(=O)N(CC3(O)CCNC3)C[C@H]2C(=O)N(C)c2ccc(F)c(Cl)c2F)n1` (stereo partly drawn) [Example 222, (4S)—N-(3-Chloro-2,4-difluorophenyl)-1-((3-hydroxypyrrolidin-3-yl)methyl)-N-methyl-3-(6-methyl-4-(trifluoromethyl)pyridin-2-yl)-2-oxoimidazolidine-4-carboxamide]: the IC50 (Polθ IC50 (nM)) turned out to be 9 nM.

Regarding `Cc1cc(C(F)(F)F)c(C#N)c(N2C[C@@H](O)C[C@H]2C(=O)N(C)c2ccc(C(F)(F)F)c(F)c2)n1` [Example 19, (2S,4S)-1-(3-Cyano-6-methyl-4-(trifluoromethyl)pyridin-2-yl)-N-(3-fluoro-4-(trifluoromethyl)-phenyl)-4-hydroxy-N-methyl-pyrrolidine-2-carboxamide], it took 524 nM to reach half-maximal inhibition (Polθ IC50 (nM)) (IC50).

In the case of `CC(=O)N1CCN(CCCN2C[C@@H](C(=O)N(C)c3ccc(F)c(Cl)c3F)N(c3cc(C(F)(F)F)cc(C)n3)C2=O)CC1` [Example 221, (S)-1-(3-(4-Acetylpiperazin-1-yl)propyl)-N-(3-chloro-2,4-difluorophenyl)-N-methyl-3-(6-methyl-4-(trifluoromethyl)pyridin-2-yl)-2-oxoimidazolidine-4-carboxamide], half-maximal inhibition (Polθ IC50 (nM)) (IC50) was put at 11 nM.

Take `Cc1cccc(N(C)C(=O)[C@@H]2C[C@H](O)CN2c2nc(C)cc(C(C)C)c2C#N)c1` [Example 33, (2S,4S)-1-(3-Cyano-4-isopropyl-6-methylpyridin-2-yl)-4-hydroxy-N-methyl-N-(m-tolyl)pyrrolidine-2-carboxamide]: the half-maximal inhibitory concentration (IC50) (Polθ IC50 (nM)) stood at 30 nM.

In the case of `Cc1cc(C(F)(F)F)cc(N2C(=O)OC[C@H]2C(=O)N(C)c2ccc(C)c(Cl)c2)n1` [Example 88, (S)-N-(3-Chloro-4-methylphenyl)-N-methyl-3-(6-methyl-4-(trifluoromethyl)pyridin-2-yl)-2-oxooxazolidine-4-carboxamide], under “Polθ IC50 (nM)”, the half-maximal inhibitory concentration (IC50) is 6 nM.

As for `Cc1cc(C(F)(F)F)cc(N2C(=O)NC[C@H]2C(=O)N(C)c2ccc3c(F)c[nH]c3n2)n1` [Example 239, (S)—N-(3-Fluoro-1H-pyrrolo[2,3-b]pyridin-6-yl)-N-methyl-3-(6-methyl-4-(trifluoromethyl)pyridin-2-yl)-2-oxoimidazolidine-4-carboxamide], the IC50 (Polθ IC50 (nM)) worked out at 6 nM.
